Results taken from patent publication US5994387A, “Pyrrolidinyl methyl indole salt” (Pfizer Inc., priority 1995, dated 1999).
Read-outs that look alike come from different tables or passages of the source.

Columns and labels:
Type in all cases: physicochemical
[1] = Hygroscopicity: moisture uptake in moisture microbalance; conditions: for Hygroscopicity at 30° C. and 90% RH: moisture uptake; for Hygroscopicity in words: qualitative statement, fumarate
Experimental: Approximately 10 mg of each of the free base and fumarate salts of Compound (I) were exposed to 8 different relative humidities (RHs) between 0 and 94% at 30° C. in the Surface Measurement Systems Ltd moisture microbalance. The samples were allowed to reach equilibrium at each of these RHs and the change in weight from the initial value when the sample was first placed in the balance was calculated. The data was used to construct the moisture sorption isotherms for the materials. The hygroscopicity of the materials was compared by calculating the moisture uptake at 90%RH, which was as follows: […]

[2] = Saturated solubility of free base and fumarate salt in water (HPLC); conditions: for solubility at 16 h: saturated solubility in water (MilliQ), 16 hours at room temperature; for Solubility in words: water, qualitative statement, fumarate
Experimental: For both the free base and fumarate salt, approximately 50 mg of solid bulk material was accurately weighed into a 1.5 mL plastic "Eppendorf" tube (Sigma). 0.3 mL of water (MilliQ) was then added to the tubes. The tubes were then vortex mixed at 1,300 rpm ("LKB") for 16 hours at room temperature. The supematant was separated from undissolved material by centrifugation at 13,000 rpm for 20 minutes ("Heraeus Biofuge 13"), then diluted and assayed for Compound (I) by HPLC. This assay used a mobile phase of acetonitrile (20%), water (80%) and trifluoroacetic acid (0.1%) and a 150×4.2 mm "Zorbax SB CN" column at 40° C. with U.V. detection at 220 nm.

[3] = Solid-state (bulk) stability after 9 weeks storage, HPLC; design: key to % Degradation (% peak area @ 50° C.-% peak area @ 4° C.): --: No peaks present at this relative retention time; conditions: for degraded at 1512 h: solid state, read-out: % Degradation (% peak area @ 50° C.-% peak area @ 4° C.); for Solid state stability in words: qualitative statement, fumarate
Experimental: Approximately 1 mg of each of the free base, hydrochloride, hydrobromide and fumarate salts of Compound (I) were accurately weighed into small glass vials. These were stored for 9 weeks at each of 4° C./ambient humidity, 40° C./ambient humidity, 40° C./75% RH and 50° C./ambient humidity. The samples were then assayed using the following stability indicating HPLC method. A mobile phase consisting of 0.05 M potassium dihydrogen orthophosphate adjusted to pH2 with phosphoric acid (90%) and acetonitrile (far UV) (10%), was pumped through a "Zorbax SB-CN" 150×4.6 mm column (40° C.) at a flow rate of 1 ml/min with UV detection at 225 nm.
The samples with the exception of the free base were prepared by dissolving them in the mobile phase in a 25 ml volumetric flask. The free base was dissolved in a few drops of methanol before diluting with the mobile phase.
The stability of the samples was quantified by investigating the appearance of new peaks in the chromatograms of stored samples and the increase in peaks present compared to control samples stored at 4° C.

[4] = Solubility in the 90% PEG 400 / 10% water formulation (observation); conditions: 1 mg/mL in 90% PEG 400 and 10% water
Excerpt: (§1) Soft gelatin capsule formulations are an attractive delivery system for Compound (I) as they improve in vivo dissolution and content uniformity on manufacture. The compound (I) can be formulated as a liquid fill soft gelatin capsule. However, oxidative degradation often limits the shelf life of such formulations. PEG 400 is representative of a typical liquid fill diluent used for such a purpose. The following study was designed to determine whether oxidative degradation occurs with Compound (I) in such a formulation, and whether the fumarate salt provides protection against oxidative degradation. 1 mg/mL solutions of Compound (I) as the free base, Compound (I) as the hydrochloride salt and Compound (I) as the fumarate salt were prepared in 90% PEG 400 (BDH) and 10% water (Milli-Q). 10% water was added to the formulations to mimic the ingress of water from the soft gelatin capsule shell. […] However, for ease of solution preparation, the hydrochloride salt was used instead.

[5] = Oxidative stability in 90% PEG 400 with and without hydrogen peroxide; conditions: for Stability to oxidative degradation, in words: qualitative statement, fumarate
Excerpt: as §1
Hydrogen peroxide (BDH) to a final concentration of 0.3% w/w was added to the formulations to provide an oxidative stress. A control formulation without hydrogen peroxide was also used in the study. 1 mL of each formulation was sealed into 2 mL HPLC vials ("Cromacol") and placed in a thermostated oven at 40° C. Samples were taken at 1.5 and 3 days and stored frozen (-20° C.) prior to assay. The samples were diluted and analysed using the stability indicating HPLC assay as described above. Degradation was expressed as % Compound (I) remaining.

[6] = relative retention time 0.59, 9 weeks at 50° C.
[7] = relative retention time 0.77, 9 weeks at 50° C.
[8] = relative retention time 0.85, 9 weeks at 50° C.
[9] = relative retention time 0.40, 9 weeks at 50° C.
[10] = relative retention time 0.60, 9 weeks at 50° C.
[11] = relative retention time 0.91, 9 weeks at 50° C.
[12] = relative retention time 1.66, 9 weeks at 50° C.
[13] = relative retention time 1.93, 9 weeks at 50° C.

What does the source list for `CNS(=O)(=O)Cc1ccc2[nH]cc(C[C@H]3CCCN3C)c2c1` [Free base, (R)-5-(methylaminosulphonylmethyl)-3-(N-methylpyrrolidin-2-ylmethyl)-1H-indole]?
Hygroscopicity at 30° C. and 90% RH [1]: 0.2 % w/w; solubility at 16 h [2]: 0.12 mg/mL; New drug related peaks ([3]; 9 weeks at 50° C.): 4 new drug related peaks; Solid-state degradation in words ([3]; 9 weeks at 50° C.): measurable degradation; total increase in % peak area ([3]; all peaks, 9 weeks at 50° C. vs 4° C., 90720 min): 0.32%; % Degradation (% peak area @ 50° C.-% peak area @ 4° C.) [3, 6]: --; % Degradation (% peak area @ 50° C.-% peak area @ 4° C.) [3, 7]: --; % Degradation (% peak area @ 50° C.-% peak area @ 4° C.) [3, 8]: --; degraded at 1512 h [3, 9]: 0.05%; degraded at 1512 h [3, 10]: 0.01%; degraded at 1512 h [3, 11]: 0.02%; degraded at 1512 h [3, 12]: 0.17%; degraded at 1512 h [3, 13]: 0.03%; Solubility in the PEG 400 formulation [4]: not very soluble

Which “Degradation rate compared with the hydrochloride” value ([5]; 90% PEG 400, 40° C., both time points (1.5 and 3 days)) does the source give for `CNS(=O)(=O)Cc1ccc2[nH]cc(C[C@H]3CCCN3C)c2c1.O=C(O)/C=C/C(=O)O` [Fumarate salt, (R)-5-(methylaminosulphonylmethyl)-3-(N-methylpyrrolidin-2-ylmethyl)-1H-indole fumarate] here?
The value was “significantly lower (analysis of variance p<0.001) than the hydrochloride at both time points”.

What about the “Stability to oxidative degradation, in words” value [5] of the same compound?
Its value is “significant protection against degradation in the formulation”.

What about the “Stability to oxidative degradation, in words” value ([5]; listed as fumarate salt of (I)) of the same compound?
Its value is “unexpectedly improved stability to oxidative degradation”.

And the “Hygroscopicity at 30° C. and 90% RH” value [1]?
Its value is 0.2 % w/w.

And the Hygroscopicity in words [1]?
The Hygroscopicity in words was “not accompanied by increased hygroscopicity”.

And the Hygroscopicity in words ([1]; listed as fumarate salt of (I))?
The Hygroscopicity in words was “non-hygroscopic”.

What about the solubility at 16 h [2] of the same compound?
The solubility at 16 h was 67.5 mg/mL.

What about the Solubility in words [2] of the same compound?
Its Solubility in words is “Increased solubility”.

What about the Solubility in words ([2]; listed as fumarate salt of (I)) of the same compound?
The Solubility in words was “excellent solubility”.

What about the “Solid-state degradation in words” value ([3]; 9 weeks at 50° C.) of the same compound?
The value was “had not degraded at all after 9 weeks 50 °C”.

What about the “Solid state stability in words” value [3] of the same compound?
Its value is “most stable in the solid state”.

What about the “Solid state stability in words” value ([3]; listed as fumarate salt of (I)) of the same compound?
The value was “excellent solubility and solid state stability”.

And the “% Degradation (% peak area @ 50° C.-% peak area @ 4° C.)” value (shortened to “% Degradation”) [3, 9]?
Its value is “--”.

And the “% Degradation” value [3, 10]?
Its value is “--”.

What about the “% Degradation” value [3, 7] of the same compound?
Its value is “--”.

What about the “% Degradation” value [3, 8] of the same compound?
Its value is “--”.

What about the “% Degradation” value [3, 11] of the same compound?
Its value is “--”.

What about the “% Degradation” value [3, 12] of the same compound?
The value was “--”.

What about the “% Degradation” value [3, 13] of the same compound?
Its value is “--”.

And the degraded at 1512 h [3, 6]?
Its degraded at 1512 h is 0%.
